Experiments:
[1] = system: breast cancer cells (MDA-MB-468); experiment: Cancer cell line growth inhibition, Sulforhodamine B assay, MDA-MB-468; format: cell-based; details: Homo sapiens, MDA-MB-468, MDA-MB-468 breast cancer cell line; read-out: Cancer Cell Line GI50 Range MDA-MB-468
How it was run: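 MDA-MB-468 cells exposed 5 days to compound at final 10 nM to 50 μM in DMEM with 10% FBS. Growth measured by sulforhodamine B protein staining after TCA fixation, absorbance 570 nm; inhibition relative to DMSO-only cells, GI50 determined for cytotoxic compounds.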

human TTK = molecular target: T1, human TTK (Homo sapiens, UniProt P33981); experiment: TTK inhibition assay (indirect ELISA); format: biochemical; details: 100 μM ATP; read-out: TTK IC50 Range
T1 construct: Active TTK was purchased from Invitrogen as an amino terminal GST fusion of full length human TTK; purchased Invitrogen
T1 sequence (P33981 1-857): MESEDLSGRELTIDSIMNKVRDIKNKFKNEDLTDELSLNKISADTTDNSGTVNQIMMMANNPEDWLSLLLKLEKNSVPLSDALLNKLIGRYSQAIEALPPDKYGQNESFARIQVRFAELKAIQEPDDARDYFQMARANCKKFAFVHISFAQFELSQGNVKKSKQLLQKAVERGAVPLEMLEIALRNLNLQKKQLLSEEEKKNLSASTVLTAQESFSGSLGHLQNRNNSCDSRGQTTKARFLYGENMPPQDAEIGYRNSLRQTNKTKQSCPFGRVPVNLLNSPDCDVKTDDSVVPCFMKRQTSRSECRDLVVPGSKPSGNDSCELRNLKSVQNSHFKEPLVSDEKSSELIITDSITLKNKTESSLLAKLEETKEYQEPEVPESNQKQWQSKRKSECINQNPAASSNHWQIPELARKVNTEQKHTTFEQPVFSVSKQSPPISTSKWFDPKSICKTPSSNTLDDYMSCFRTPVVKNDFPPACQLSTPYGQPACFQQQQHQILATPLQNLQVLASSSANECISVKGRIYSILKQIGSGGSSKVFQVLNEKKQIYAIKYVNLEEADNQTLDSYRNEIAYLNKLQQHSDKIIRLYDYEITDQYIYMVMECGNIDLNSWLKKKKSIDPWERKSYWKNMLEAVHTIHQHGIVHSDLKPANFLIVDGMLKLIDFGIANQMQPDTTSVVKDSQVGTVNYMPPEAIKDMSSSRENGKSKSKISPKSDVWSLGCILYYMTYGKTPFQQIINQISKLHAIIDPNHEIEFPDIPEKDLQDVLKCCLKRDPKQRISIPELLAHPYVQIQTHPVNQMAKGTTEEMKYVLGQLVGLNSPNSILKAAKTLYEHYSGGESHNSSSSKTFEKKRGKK
How it was run: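 Activity detected by indirect ELISA after compounds sat with full-length GST-TTK for 5 min prior to starting the reaction with ATP. IC50 came from a four-parameter logistic curve of % inhibition, calculated against background and uninhibited control wells.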

[2] = system: colon cancer cells (HCT116); experiment: Cancer cell line growth inhibition, Sulforhodamine B assay, HCT116; format: cell-based; details: Homo sapiens, HCT-116, HCT116 colon cancer cell line; read-out: Cancer Cell Line GI50 Range HCT116
How it was run: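 HCT116 cells, 1000–4000 per well, seeded 24 h ahead, then treated 5 days with compound at 10 nM to 50 μM final in DMEM with 10% FBS. Growth measured by sulforhodamine B staining after TCA fixation, A570; GI50 from inhibition relative to DMSO-only cells.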

[3] = system: ovarian cancer cells (OVCAR-3); experiment: Cancer cell line growth inhibition, Sulforhodamine B assay, OVCAR-3; format: cell-based; details: Homo sapiens, OVCAR-3, OVCAR-3 ovarian cancer cell line; read-out: Cancer Cell Line GI50 Range OVCAR-3
How it was run: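 OVCAR-3 cells were seeded 24 h before compound addition, then exposed for 5 days to final concentrations of 10 nM to 50 μM in DMEM with 10% FBS. Growth was measured by TCA fixation and sulforhodamine B staining with absorbance at 570 nm. Inhibition was relative to DMSO-only cells, and GI50 came from curve fitting.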

[4] = system: Colon 12 tumor initiating cells; experiment: Tumor-initiating cell growth inhibition, Alamar Blue assay, colon TICs; format: cell-based; details: 216 h; Colon 12 TICs, 9 days; read-out: Tumor Initiating Cell GI50 Range Colon 12
Excerpt: (§1) Non-tissue or tissue cultured treated T-75 flask and 96-well plates were purchased from VWR. Vitamin B-27 supplement, MEM NEAA (minimum essential medium non essential amino acids), sodium pyruvate, L-glutamine, N2 supplement, penicillin-streptomycin and fungizone/amphotericin B were obtained from Invitrogen. Lipid mixture, heparin and EGF were purchased from Sigma; bFGF from BD Biosciences. Tumor Initiating Cells (TICs) from colon were routinely maintained using non-tissue cultured treated T-75 flasks in DMEM:F12 medium containing 0.2XB-27 supplement, 4 ug/ml heparin, 1×MEM NEAA, 1×sodium pyruvate, 1 mM glutamine, 10 pg/ul bFGF, 20 pg/ul EGF, 1× N2 supplement, lipid mixture, penicillin-streptomycin and fungizone/amphotericin B. Ovarian TICs were routinely maintained using tissue cultured treated T-75 flasks in DMEM:F12 medium containing IXB-27 supplement, 4 ug/ml heparin, 20 pg/ul bFGF, 20 pg/ul EGF and penicillin-streptomycin.
(§2) Compounds described herein were dissolved in DMSO and further diluted in cell culture medium for GI50 determination. Colon TICs were trypsinized and seeded into non-tissue cultured treated 96-well plates with 4,000 cells/well. After 24 h, compound was added into the cell culture at different concentrations, and the final concentration of DMSO was adjusted to 0.1%. Cells were then cultured at 37° C. for 9 days. Ovarian TICs were trypsinized and seeded into tissue cultured treated 96-well plates with 1,000 cells/well. After 24 h, compound was added into the cell culture at different concentrations, and the final concentration of DMSO was adjusted to 0.1%. Cells were then cultured at 37° C. for 6 days. Cell viability was assessed by Alamar Blue assay: 10 ul of Alamar Blue was added into each well. After 4 hours incubation at 37° C., fluorescence was recorded at excitation 544 and emission 590. GI50 (Growth inhibition) was calculated using GraphPad Prism 4.0 software.
(§3) In Table 1 below, GI50 value ranges for compound examples against TICs (Colon 12 and Ovarian 2393A) are given.

[5] = system: Ovarian 2393A tumor initiating cells; experiment: Tumor-initiating cell growth inhibition, Alamar Blue assay, ovarian TICs; format: cell-based; details: 144 h; Ovarian 2393A TICs, 6 days; read-out: Tumor Initiating Cell GI50 Range Ovarian 2393A
Excerpt: as §1, §2, §3

SMILES	GI50 [1]	IC50 (human TTK)	GI50 [2]	GI50 [3]	GI50 [4]	GI50 [5]
Cc1cc(-c2cnn3c(NCC4CCOCC4)cc(NC4(CO)CCCC4)nc23)ccc1C(=O)NC1CC1 [Example C45]	≤ 0.1 µM	< 0.1 µM	≤ 0.1 µM	≤ 0.1 µM	≤ 0.1 µM	0.1 to 0.5 µM
Cc1cc(-c2cnn3c(NCC4CCOCC4)cc(N[C@H]4CC[C@H](O)CC4)nc23)ccc1C(=O)NC1CC1 [Example C48]	0.1 to 0.5 µM	< 0.1 µM	0.1 to 0.5 µM	0.1 to 0.5 µM	0.1 to 0.5 µM	0.1 to 0.5 µM
Cc1cc(-c2cnn3c(NCC4CCOCC4)cc(OC4CCN(C5COC5)C4)nc23)ccc1C(=O)NC1CC1 (stereo not drawn) [Example C116]	0.1 to 0.5 µM	< 0.1 µM	≤ 0.1 µM	0.1 to 0.5 µM	0.1 to 0.5 µM	0.1 to 0.5 µM
Cc1cc(-c2cnn3c(NCC4CCOCC4)cc(N[C@@H]4CCCC[C@@H]4O)nc23)ccc1C(=O)NC1CC1 [Example C118]	0.1 to 0.5 µM	< 0.1 µM	≤ 0.1 µM	0.1 to 0.5 µM	0.1 to 0.5 µM	0.1 to 0.5 µM
Cc1cc(-c2cnn3c(NCC4CCOCC4)cc(N[C@H]4CCN(C5COC5)C4)nc23)ccc1C(=O)NC1CC1 [Example C120]	0.1 to 0.5 µM	< 0.1 µM	0.1 to 0.5 µM	> 0.5 µM	> 0.5 µM	> 0.5 µM
Cc1cc(-c2cnn3c(NCC4CCOCC4)cc(N[C@H](CO)CC(C)C)nc23)ccc1C(=O)NC1CC1 [Example C130]	0.1 to 0.5 µM	< 0.1 µM	≤ 0.1 µM	0.1 to 0.5 µM	≤ 0.1 µM	≤ 0.1 µM
Cc1cc(-c2cnn3c(NC[C@H]4C[C@H](O)C4)cc(NC4CCOCC4)nc23)ccc1C(=O)NC1CC1 [Example C145]	0.1 to 0.5 µM	< 0.1 µM	0.1 to 0.5 µM	0.1 to 0.5 µM	0.1 to 0.5 µM	0.1 to 0.5 µM
Cc1cc(-c2cnn3c(NCC4CCOCC4)cc(-c4ccncc4)nc23)ccc1C(=O)NC1CC1 [Example C150]	0.1 to 0.5 µM	< 0.1 µM	0.1 to 0.5 µM	0.1 to 0.5 µM	0.1 to 0.5 µM	0.1 to 0.5 µM
Cc1cc(-c2cnn3c(NCC4CCOCC4)cc(N[C@H](CO)C4CCCC4)nc23)ccc1C(=O)NC1CC1 [Example C165]	0.1 to 0.5 µM	< 0.1 µM	≤ 0.1 µM	0.1 to 0.5 µM	≤ 0.1 µM	0.1 to 0.5 µM
Cc1cc(-c2cnn3c(NC[C@H]4CC[C@@H](O)CC4)cc(Oc4cccnc4)nc23)ccc1C(=O)NC1CC1 [Example C176]	≤ 0.1 µM	< 0.1 µM	≤ 0.1 µM	≤ 0.1 µM	≤ 0.1 µM	≤ 0.1 µM

The next lines start with the values.

GI50 [1]	IC50 (human TTK)	GI50 [2]	GI50 [3]	GI50 [4]	GI50 [5]	SMILES
≤ 0.1 µM	< 0.1 µM	≤ 0.1 µM	0.1 to 0.5 µM	≤ 0.1 µM	≤ 0.1 µM	Cc1cc(-c2cnn3c(NCC4CCN(C)CC4)cc(Oc4cccc(F)c4)nc23)ccc1C(=O)NC1CC1 [Example C46, N-cyclopropyl-4-(5-(3-fluorophenoxy)-7-(((1-methylpiperidin-4-yl)methyl)amino)pyrazolo[1,5-a]pyrimidin-3-yl)-2-methylbenzamide]
0.1 to 0.5 µM	< 0.1 µM	0.1 to 0.5 µM	0.1 to 0.5 µM	≤ 0.1 µM	≤ 0.1 µM	Cc1cc(-c2cnn3c(NCC4COC4)cc(Oc4cccnc4)nc23)ccc1C(=O)NC1CC1 [Example C100]
≤ 0.1 µM	< 0.1 µM	≤ 0.1 µM	≤ 0.1 µM	≤ 0.1 µM	≤ 0.1 µM	Cc1cc(-c2cnn3c(NC[C@H]4C[C@H](O)C4)cc(Oc4cccnc4)nc23)ccc1C(=O)NC1CC1 [Example C144]
≤ 0.1 µM	< 0.1 µM	≤ 0.1 µM	0.1 to 0.5 µM	≤ 0.1 µM	≤ 0.1 µM	Cc1cc(-c2cnn3c(NCC4(F)CCNCC4)cc(Oc4cccc(F)c4)nc23)ccc1C(=O)NC1CC1 [Example C146]
0.1 to 0.5 µM	< 0.1 µM	0.1 to 0.5 µM	0.1 to 0.5 µM	≤ 0.1 µM	≤ 0.1 µM	Cc1cc(-c2cnn3c(NC[C@H]4CC[C@H](O)CC4)cc(Oc4cccnc4)nc23)ccc1C(=O)NC1CC1 [Example C177]
≤ 0.1 µM	< 0.1 µM	≤ 0.1 µM	≤ 0.1 µM	≤ 0.1 µM	≤ 0.1 µM	Cc1cc(-c2cnn3c(NCCN4CCC(O)CC4)cc(Oc4cccc(F)c4)nc23)ccc1C(=O)NC1CC1 [Example C182]
≤ 0.1 µM	< 0.1 µM	≤ 0.1 µM	0.1 to 0.5 µM	≤ 0.1 µM	≤ 0.1 µM	Cc1cc(-c2cnn3c(NCCN(C)C)cc(Oc4cccc(F)c4)nc23)ccc1C(=O)NC1CC1 [Example C187]

Reference: patent US9573954B2, “Pyrazolopyrimidine compounds” (University Health Network, priority 2012, dated 2017)
